Experiments:
[1] = system: B-16 mouse melanoma cells; details: 1 μg/ml or more
Description: Then, these cells were treated using trypsin, separated from a culture vessel and centrifuged, then, melanin was extracted from the cells. Melanin was dissolved by adding 1 ml of 1N sodium hydroxide solution to the extract and subjected to measurement of absorbance at 475 nm, and an amount of the generated melanin was expressed by an absorbance per unit number of cells (10^6 cells) (this procedure was repeated three times).

[2] = system: B-16 mouse melanoma cells; assay: Measurement of melanin generation inhibitory effects in cultured melanoma cells; format: cell-based; details: for inhibition at 20 µg/mL: concentration 20 μg/ml
[3] = Mus musculus, 72 h, concentration 5 μg/ml, cultured 3 days, relative to control, read-out: Inhibition rate (melanin generation)
[4] = Mus musculus, 72 h, cultured 3 days, relative to control, read-out: Inhibition rate (melanin generation)

Row | SMILES | Cytotoxicity [1] | inhibition at 1 µg/mL ([2]; Mus musculus, 72 h, concentration 1 μg/ml, cultured 3 days, relative to control, read-out: Inhibition rate (melanin generation)) | Inhibition rate (melanin generation) ([2]; concentration 5 μg/ml, cultured 3 days, relative to control) | Melanin generation inhibitory effects (in words) ([2]; cultured mouse melanoma cells, comparison with hydroquinone) | inhibition at 5 µg/mL [2, 3] | inhibition at 20 µg/mL [2, 4]
1 | Oc1ccc(O)cc1 [Hydroquinone, hydroquinone, reference compound] | serious cytotoxicity | 52% | Apoptosis | strong effects of inhibiting melanin generation at a low concentration | – | –
2 | CCCC(=O)Oc1cccc(OC(=O)CCC)c1 [Material in Example 1, 1,3-bis-butyryloxy-benzene] | – | – | – | – | 43% | 68%
3 | CCCCC(=O)Oc1cccc(OC(=O)CCCC)c1 [Material in Example 2, 1,3-bis-pentanoyloxy-benzene] | – | – | – | – | 52% | 85%
4 | CC(C)=CC(=O)Oc1cccc(OC(=O)C=C(C)C)c1 [Material in Example 3, 1,3-bis-(3-methyl-2-butenoyloxy)-benzene] | – | – | – | – | 53% | 83%
5 | CCCCCCCC(=O)Oc1cccc(OC(=O)CCCCCCC)c1 [Material in Example 4, 1,3-bis-octanoyloxy-benzene] | – | – | – | – | 41% | 71%
6 | CCCCC(CC)C(=O)Oc1cccc(OC(=O)C(CC)CCCC)c1 (stereo not drawn) [Material in Example 5, 1,3-bis-(2-ethyl-hexanoyloxy)-benzene] | – | – | – | – | 45% | 79%
7 | CCCCCCCCCC(=O)Oc1cccc(OC(=O)CCCCCCCCC)c1 [Material in Example 6, 1,3-bis-decanoyloxy-benzene] | – | – | – | – | 32% | 53%
8 | CCCCCCCCCCCC(=O)Oc1cccc(OC(=O)CCCCCCCCCCC)c1 [Material in Example 7, 1,3-bis-lauroyloxy-benzene] | – | – | – | – | 21% | 43%
9 | CCCCC(CC)C(=O)Oc1cc(OC(=O)C(CC)CCCC)c2ccccc2c1 (stereo not drawn) [Material in Example 8, 1,3-bis-(2-ethylhexanoyloxy)-naphthalene] | – | – | – | – | 35% | 63%
10 | CCCCC(CC)C(=O)Oc1ccnc(OC(=O)C(CC)CCCC)c1 (stereo not drawn) [Material in Example 9, 2,4-bis-(2-ethylhexanoyloxy)-pyridine] | – | – | – | – | 41% | 67%
11 | CCCCC(CC)C(=O)Oc1cccc(OC(=O)C(CC)CCCC)c1OC(=O)C(CC)CCCC (stereo not drawn) [Material in Example 10, 1,2,3-tris-(2-ethylhexanoyloxy)-benzene] | – | – | – | – | 38% | 65%
12 | CCCCC(CC)C(=O)Oc1ccc(C=Cc2cc(OC(=O)C(CC)CCCC)cc(OC(=O)C(CC)CCCC)c2)cc1 (stereo not drawn) [Material in Example 11, 3,4′,5-tris-(2-ethylhexanoyloxy)-stilbene] | – | – | – | – | 31% | 54%
13 | CCCCC(CC)C(=O)Oc1ccc(-c2coc3cc(OC(=O)C(CC)CCCC)cc(OC(=O)C(CC)CCCC)c3c2=O)cc1 (stereo not drawn) [Material in Example 12, 4′,5,7-tris-(2-ethylhexanoyloxy)-isoflavone] | – | – | – | – | 35% | 65%
14 | CCCCC(CC)C(=O)Oc1cc(OC(=O)C(CC)CCCC)c2c(=O)c(OC(=O)C(CC)CCCC)c(-c3ccccc3)oc2c1 (stereo not drawn) [Material in Example 13, 3,5,7-tris-(2-ethylhexanoyloxy)-flavone] | – | – | – | – | 30% | 63%
15 | CCCCC(CC)C(=O)Oc1ccc(-c2cc(=O)c3c(OC(=O)C(CC)CCCC)cc(OC(=O)C(CC)CCCC)cc3o2)cc1 (stereo not drawn) [Material in Example 14, 5,7,4′-tris-(2-ethylhexanoyloxy)-flavone] | – | – | – | – | 31% | 57%
16 | CCCCC(CC)C(=O)Oc1cc2oc(-c3ccccc3)cc(=O)c2c(OC(=O)C(CC)CCCC)c1OC(=O)C(CC)CCCC (stereo not drawn) [Material in Example 15, 5,6,7-tris-(2-ethylhexanoyloxy)-flavone] | – | – | – | – | 39% | 72%
17 | CCCCC(CC)C(=O)Oc1ccc(C2CC(=O)c3c(OC(=O)C(CC)CCCC)cc(OC(=O)C(CC)CCCC)cc3O2)cc1 (stereo not drawn) [Material in Example 16, 4′,5,7-tris-(2-ethylhexanoyloxy)-flavanone] | – | – | – | – | 41% | 59%
18 | CCCCC(CC)C(=O)Oc1ccc(-c2oc3cc(OC(=O)C(CC)CCCC)cc(OC(=O)C(CC)CCCC)c3c(=O)c2OC(=O)C(CC)CCCC)cc1 (stereo not drawn) [Material in Example 17, 3,5,7,4′-tetrakis-(2-ethylhexanoyloxy)-flavone] | – | – | – | – | 32% | 69%
19 | CCCCC(CC)C(=O)Oc1cc(C=Cc2ccc(OC(=O)C(CC)CCCC)c(OC(=O)C(CC)CCCC)c2)cc(OC(=O)C(CC)CCCC)c1 (stereo not drawn) [Material in Example 18, 3,4,3′,5′-tetrakis-(2-ethylhexanoyloxy)-stilbene] | – | – | – | – | 47% | 72%
20 | CCCCC(CC)C(=O)Oc1cc(OC(=O)C(CC)CCCC)c2c(c1)OC(c1ccc(OC(=O)C(CC)CCCC)c(OC(=O)C(CC)CCCC)c1)C(OC(=O)C(CC)CCCC)C2 (stereo not drawn) [Material in Example 19, 3,3′,4′,5,7-pentakis-(2-ethylhexanoyloxy)-flavane] | – | – | – | – | 39% | 69%

From patent US20150283051A1, “DERIVATIVE OF NOVEL POLYHYDROXY AROMATIC COMPOUND AND USE THEREOF” (RNS CO.,LTD., priority 2012, published 2015)
